Measured values: ChEMBL document CHEMBL4152274, “Design, synthesis and X-ray crystallography of selenides bearing benzenesulfonamide moiety with neuropathic pain modulating effects” (Eur J Med Chem, 2018)
The source made the active and inactive calls. The rule behind the calls is not given here.

What follows are molecules tested against Carbonic anhydrase 9 (Homo sapiens, UniProt Q16790) (assay: Inhibition of human carbonic anhydrase 9 incubated for 15 mins prior to testing by stopped-flow CO2 hydration assay).

Point of comparison: NS(=O)(=O)c1ccc(C[Se]c2ccc3ccccc3c2)cc1, Ki 0.337 µM. Against it:
- CC(=O)Oc1ccccc1C(=O)Nc1ccc([Se]Cc2ccc(S(N)(=O)=O)cc2)cc1 — 2.1-fold higher, 0.71 µM
- N#C[Se]Cc1ccc(S(N)(=O)=O)cc1 — 84-fold lower, 0.004 µM
- NS(=O)(=O)c1ccc([Se]CC2CC2)cc1 — 7.3-fold lower, 0.0464 µM
- CN(C)c1ccc([Se]Cc2ccc(S(N)(=O)=O)cc2)cc1 — within 1.5-fold, 0.45 µM
- Cc1cc(C)cc(NC(=O)Nc2ccc([Se]Cc3ccc(S(N)(=O)=O)cc3)cc2)c1 — 3.4-fold higher, 1.14 µM
- NS(=O)(=O)c1ccc(C[Se]c2ccc(NC(=O)/C=C/c3ccccc3)cc2)cc1 — 3-fold higher, 1.01 µM
- NS(=O)(=O)c1ccc(C[Se]c2ccc(NC(=S)Nc3ccc(-c4c5ccc(=O)cc-5oc5cc(O)ccc45)c(C(=O)O)c3)cc2)cc1 — 2.1-fold higher, 0.697 µM
- NS(=O)(=O)c1ccc([Se]Cc2ccccc2)cc1 — 1.6-fold higher, 0.549 µM
- NS(=O)(=O)c1ccc(C[Se]c2ccc(NC(=O)Nc3ccc(F)cc3)cc2)cc1 — 3.2-fold higher, 1.07 µM
- COc1ccc(C(=O)Nc2ccc([Se]Cc3ccc(S(N)(=O)=O)cc3)cc2)c(OC)c1 — 2.5-fold higher, 0.845 µM
- Nc1ccc([Se]Cc2ccc(S(N)(=O)=O)cc2)cc1 — within 1.5-fold, 0.286 µM

Each molecule was assayed on Mus musculus (assay: Pain relieving effect in mouse oxaliplatin-induced neuropathic pain model at 100 mg/kg, po measured over 15 to 45 mins by cold plate test).
Assay type: functional, organism-based

With COCC[Se]c1ccc(S(N)(=O)=O)cc1 the Activity was “Active”.
NS(=O)(=O)c1ccc([Se]CCc2ccccc2)cc1 was tested, and the Activity was “Active”.

What follows are molecules tested on Mus musculus (assay: Pain relieving effect in mouse oxaliplatin-induced neuropathic pain model at 30 mg/kg, po measured at 30 mins by cold plate test).
Assay type: functional, organism-based

For NS(=O)(=O)c1ccc(C[Se]c2ccccc2)cc1, the Activity was “Active”.
